This is an account of results in ChEMBL document CHEMBL1909046, “DrugMatrix in vitro pharmacology data”.

Cytochrome P450 3A4, sequence (P08684 whole entry): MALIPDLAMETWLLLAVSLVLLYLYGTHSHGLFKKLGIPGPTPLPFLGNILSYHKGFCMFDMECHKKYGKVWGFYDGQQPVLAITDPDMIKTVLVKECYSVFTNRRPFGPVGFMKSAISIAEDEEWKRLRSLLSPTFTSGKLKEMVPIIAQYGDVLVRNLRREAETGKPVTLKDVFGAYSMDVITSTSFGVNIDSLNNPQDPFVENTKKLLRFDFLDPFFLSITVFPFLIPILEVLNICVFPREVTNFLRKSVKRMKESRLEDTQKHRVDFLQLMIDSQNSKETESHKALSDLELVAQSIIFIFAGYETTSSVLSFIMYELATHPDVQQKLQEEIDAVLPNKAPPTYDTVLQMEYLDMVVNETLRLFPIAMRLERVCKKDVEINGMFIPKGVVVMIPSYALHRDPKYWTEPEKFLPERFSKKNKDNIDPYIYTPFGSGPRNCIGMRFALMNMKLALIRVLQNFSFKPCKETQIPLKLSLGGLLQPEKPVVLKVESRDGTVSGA
Beta-1 adrenergic receptor, sequence (P08588 whole entry): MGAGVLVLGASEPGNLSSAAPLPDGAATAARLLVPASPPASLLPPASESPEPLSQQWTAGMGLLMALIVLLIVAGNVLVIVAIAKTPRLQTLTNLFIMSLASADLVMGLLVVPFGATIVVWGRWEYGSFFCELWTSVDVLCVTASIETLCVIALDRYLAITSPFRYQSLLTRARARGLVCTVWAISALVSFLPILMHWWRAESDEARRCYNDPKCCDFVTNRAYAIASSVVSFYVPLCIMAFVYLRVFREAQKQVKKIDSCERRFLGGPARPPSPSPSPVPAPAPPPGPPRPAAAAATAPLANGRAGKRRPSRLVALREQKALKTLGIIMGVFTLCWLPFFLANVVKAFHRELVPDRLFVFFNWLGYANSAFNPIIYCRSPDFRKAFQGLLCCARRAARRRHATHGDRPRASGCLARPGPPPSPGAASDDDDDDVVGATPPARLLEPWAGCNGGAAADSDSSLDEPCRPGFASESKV

The first series concerns the target Beta-1 adrenergic receptor (Homo sapiens, UniProt P08588). The series can be described thus: DRUGMATRIX: Adrenergic beta1 radioligand binding (ligand: [125I] Cyanopindolol). It is filed as cell membranes, CHO-K1, Membrane. The following applies: cho-k1; Not Active = under 50% inhibition at 10 µM.
Turning to `NC(=O)N1c2ccccc2CCc2ccccc21`, the IC50 entry was “Not Active”.

For `CC(C)C(Br)C(=O)NC(N)=O` (configuration not stated) [BROMISOVALUM], the IC50 entry was “Not Active”.

As for `COc1ccc(C[C@H]2NC[C@H](O)[C@H]2OC(C)=O)cc1` [ANISOMYCIN], the IC50 entry was “Not Active” and the Ki entry is given as “Not Active”.

In the case of `C[C@]12CCC(=O)C=C1CC[C@@H]1[C@@H]2CC[C@@]2(C)[C@H]1CC[C@]2(C)O` [METHYLTESTOSTERONE], the IC50 entry is recorded as “Not Active”.

As to `O=C1CC[C@@H](N2C(=O)c3ccccc3C2=O)C(=O)N1`, the IC50 entry is “Not Active”.

`Cc1c(O)c(=O)ccn1C` [DEFERIPRONE]: the IC50 result was “Not Active”.

Take `CCOc1ccc(NC(C)=O)cc1` [PHENACETIN]: the IC50 result is “Not Active”.

`NC1=NC(=O)C(c2ccccc2)O1` (configuration not stated) [PEMOLINE]: the IC50 entry is reported as “Not Active”.

`CCn1cc(C(=O)O)c(=O)c2cc(F)c(N3CCNCC3)cc21` [NORFLOXACIN]: the IC50 entry is recorded as “Not Active”.

System in another series: not listed separately
The series can be described thus: DRUGMATRIX: Sigma2 radioligand binding (ligand: [3H] Ifenprodil). The note with it: Not Active = under 50% inhibition at 10 µM. It is filed as cell membranes, Rattus norvegicus, Wistar, Brain, Membrane.
On to `NC(=O)N1c2ccccc2CCc2ccccc21`, for which the IC50 result was “Not Active” and the Ki entry is “Not Active”.

As for `CC(C)C(Br)C(=O)NC(N)=O` (configuration not stated) [BROMISOVALUM], the IC50 entry was “Not Active” and the Ki entry is on record as “Not Active”.

Regarding `COc1ccc(C[C@H]2NC[C@H](O)[C@H]2OC(C)=O)cc1` [ANISOMYCIN], the IC50 entry is “Not Active” and the Ki entry is recorded as “Not Active”.

In the case of `C[C@]12CCC(=O)C=C1CC[C@@H]1[C@@H]2CC[C@@]2(C)[C@H]1CC[C@]2(C)O` [METHYLTESTOSTERONE], the IC50 result is listed as “Not Active” and the Ki result is on record as “Not Active”.

Turning to `O=C1CC[C@@H](N2C(=O)c3ccccc3C2=O)C(=O)N1`, the IC50 result is given as “Not Active” and the Ki result is “Not Active”.

For `Cc1c(O)c(=O)ccn1C` [DEFERIPRONE], the IC50 result is recorded as “Not Active” and the Ki entry is recorded as “Not Active”.

On to `CCOc1ccc(NC(C)=O)cc1` [PHENACETIN], for which the IC50 entry was “Not Active” and the Ki entry is “Not Active”.

For the compound `NC1=NC(=O)C(c2ccccc2)O1` (configuration not stated) [PEMOLINE], the IC50 entry is given as “Not Active” and the Ki entry was “Not Active”.

On to `CCn1cc(C(=O)O)c(=O)c2cc(F)c(N3CCNCC3)cc21` [NORFLOXACIN], for which the IC50 result is on record as “Not Active” and the Ki entry is “Not Active”.

For the next series, the target named is T1, Muscarinic acetylcholine receptor M2 (Homo sapiens, UniProt P08172). Also: in other assays of this panel Not Active means under 50% inhibition at 10 µM.
T1 sequence (P08172 whole entry): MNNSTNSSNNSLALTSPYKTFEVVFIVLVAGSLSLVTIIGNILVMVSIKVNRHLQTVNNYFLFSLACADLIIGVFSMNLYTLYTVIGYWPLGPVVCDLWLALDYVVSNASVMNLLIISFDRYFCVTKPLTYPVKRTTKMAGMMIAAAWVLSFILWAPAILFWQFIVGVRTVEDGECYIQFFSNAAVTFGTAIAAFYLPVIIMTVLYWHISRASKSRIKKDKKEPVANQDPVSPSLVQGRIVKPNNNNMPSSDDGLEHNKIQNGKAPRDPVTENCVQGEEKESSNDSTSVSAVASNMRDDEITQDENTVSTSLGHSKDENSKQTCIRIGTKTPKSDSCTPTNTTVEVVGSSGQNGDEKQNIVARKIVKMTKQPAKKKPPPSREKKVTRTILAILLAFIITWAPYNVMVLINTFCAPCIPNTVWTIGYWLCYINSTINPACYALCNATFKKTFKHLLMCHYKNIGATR
Type of series: cell membranes, CHO-K1, Membrane. The following applies: cho-k1.
In the case of `NC(=O)N1c2ccccc2CCc2ccccc21`, the IC50 entry is reported as “Not Active”.

On to `CC(C)C(Br)C(=O)NC(N)=O` (configuration not stated) [BROMISOVALUM], for which the IC50 result is given as “Not Active”.

Turning to `COc1ccc(C[C@H]2NC[C@H](O)[C@H]2OC(C)=O)cc1` [ANISOMYCIN], the IC50 result is listed as “Not Active” and the Ki entry was “Not Active”.

On to `C[C@]12CCC(=O)C=C1CC[C@@H]1[C@@H]2CC[C@@]2(C)[C@H]1CC[C@]2(C)O` [METHYLTESTOSTERONE], for which the IC50 entry is “Not Active”.

For `O=C1CC[C@@H](N2C(=O)c3ccccc3C2=O)C(=O)N1`, the IC50 entry is reported as “Not Active”.

As to `Cc1c(O)c(=O)ccn1C` [DEFERIPRONE], the IC50 entry is reported as “Not Active”.

With `CCOc1ccc(NC(C)=O)cc1` [PHENACETIN], the IC50 entry was “Not Active”.

On to `NC1=NC(=O)C(c2ccccc2)O1` (configuration not stated) [PEMOLINE], for which the IC50 result is “Not Active”.

As to `CCn1cc(C(=O)O)c(=O)c2cc(F)c(N3CCNCC3)cc21` [NORFLOXACIN], the IC50 entry is “Not Active”.

System in the next series: not listed separately
The series is described as follows: DRUGMATRIX: Phorbol Ester radioligand binding (ligand: [3H] PDBu). Type of series: cell membranes, Mus musculus, ICR, Brain, Membrane. The note with it: Not Active = under 50% inhibition at 10 µM.
Take `NC(=O)N1c2ccccc2CCc2ccccc21`: the IC50 result is “Not Active” and the Ki entry is “Not Active”.

On to `CC(C)C(Br)C(=O)NC(N)=O` (configuration not stated) [BROMISOVALUM], for which the IC50 entry was “Not Active” and the Ki result is reported as “Not Active”.

Regarding `COc1ccc(C[C@H]2NC[C@H](O)[C@H]2OC(C)=O)cc1` [ANISOMYCIN], the IC50 entry was “Not Active” and the Ki entry was “Not Active”.

As to `C[C@]12CCC(=O)C=C1CC[C@@H]1[C@@H]2CC[C@@]2(C)[C@H]1CC[C@]2(C)O` [METHYLTESTOSTERONE], the IC50 result is listed as “Not Active” and the Ki entry is “Not Active”.

On to `O=C1CC[C@@H](N2C(=O)c3ccccc3C2=O)C(=O)N1`, for which the IC50 entry is recorded as “Not Active” and the Ki result is reported as “Not Active”.

With `Cc1c(O)c(=O)ccn1C` [DEFERIPRONE], the IC50 result is reported as “Not Active” and the Ki entry is on record as “Not Active”.

As for `CCOc1ccc(NC(C)=O)cc1` [PHENACETIN], the IC50 result is on record as “Not Active” and the Ki result is “Not Active”.

`NC1=NC(=O)C(c2ccccc2)O1` (configuration not stated) [PEMOLINE]: the IC50 result is “Not Active” and the Ki entry is recorded as “Not Active”.

`CCn1cc(C(=O)O)c(=O)c2cc(F)c(N3CCNCC3)cc21` [NORFLOXACIN]: the IC50 result is “Not Active” and the Ki result was “Not Active”.

The target of a further series is Cytochrome P450 2C9 (Homo sapiens, UniProt P11712). The note with it: bti-tn-5b1-4. Also: in other assays of this panel Not Active means under 50% inhibition at 10 µM.
Cytochrome P450 2C9, sequence (P11712 whole entry): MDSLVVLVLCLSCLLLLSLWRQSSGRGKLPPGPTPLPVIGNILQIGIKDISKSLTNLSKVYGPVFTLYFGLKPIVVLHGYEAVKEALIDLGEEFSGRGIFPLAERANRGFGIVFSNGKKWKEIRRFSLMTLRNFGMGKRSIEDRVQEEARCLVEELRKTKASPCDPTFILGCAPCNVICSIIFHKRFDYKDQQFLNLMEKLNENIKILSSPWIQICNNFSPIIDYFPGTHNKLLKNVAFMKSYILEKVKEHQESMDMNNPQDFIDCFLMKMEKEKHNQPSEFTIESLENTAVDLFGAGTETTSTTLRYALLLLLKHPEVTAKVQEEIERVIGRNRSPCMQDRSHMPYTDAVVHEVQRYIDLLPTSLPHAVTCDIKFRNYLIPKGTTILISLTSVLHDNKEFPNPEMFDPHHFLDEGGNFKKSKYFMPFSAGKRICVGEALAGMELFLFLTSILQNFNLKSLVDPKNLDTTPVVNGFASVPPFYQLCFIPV
For `NC(=O)N1c2ccccc2CCc2ccccc21`, the IC50 result is “Not Active” and the Ki entry is “Not Active”.

For `CC(C)C(Br)C(=O)NC(N)=O` (configuration not stated) [BROMISOVALUM], the IC50 result is given as “Not Active” and the Ki result was “Not Active”.

As to `COc1ccc(C[C@H]2NC[C@H](O)[C@H]2OC(C)=O)cc1` [ANISOMYCIN], the IC50 result is on record as “Not Active” and the Ki result was “Not Active”.

As to `C[C@]12CCC(=O)C=C1CC[C@@H]1[C@@H]2CC[C@@]2(C)[C@H]1CC[C@]2(C)O` [METHYLTESTOSTERONE], the IC50 entry is recorded as “Not Active” and the Ki entry is listed as “Not Active”.

On to `O=C1CC[C@@H](N2C(=O)c3ccccc3C2=O)C(=O)N1`, for which the IC50 result is “Not Active” and the Ki entry is recorded as “Not Active”.

For `Cc1c(O)c(=O)ccn1C` [DEFERIPRONE], the IC50 result is “Not Active” and the Ki entry is on record as “Not Active”.

Regarding `CCOc1ccc(NC(C)=O)cc1` [PHENACETIN], the IC50 entry was “Not Active” and the Ki entry is reported as “Not Active”.

As to `NC1=NC(=O)C(c2ccccc2)O1` (configuration not stated) [PEMOLINE], the IC50 result is “Not Active” and the Ki entry is given as “Not Active”.

In the case of `CCn1cc(C(=O)O)c(=O)c2cc(F)c(N3CCNCC3)cc21` [NORFLOXACIN], the IC50 entry is on record as “Not Active” and the Ki result is listed as “Not Active”.

The next series concerns the target Cytochrome P450 3A4 (Homo sapiens, UniProt P08684). The note with it: bti-tn-5b1-4. Also: in other assays of this panel Not Active means under 50% inhibition at 10 µM.
Take `NC(=O)N1c2ccccc2CCc2ccccc21`: the IC50 result was “Not Active” and the Ki result is “Not Active”.

As to `CC(C)C(Br)C(=O)NC(N)=O` (configuration not stated) [BROMISOVALUM], the IC50 entry is given as “Not Active” and the Ki result is listed as “Not Active”.

Take `COc1ccc(C[C@H]2NC[C@H](O)[C@H]2OC(C)=O)cc1` [ANISOMYCIN]: the IC50 result is on record as “Not Active” and the Ki result is “Not Active”.

Consider `C[C@]12CCC(=O)C=C1CC[C@@H]1[C@@H]2CC[C@@]2(C)[C@H]1CC[C@]2(C)O` [METHYLTESTOSTERONE], for which the IC50 result is “Not Active” and the Ki entry is reported as “Not Active”.

With `O=C1CC[C@@H](N2C(=O)c3ccccc3C2=O)C(=O)N1`, the IC50 entry was “Not Active” and the Ki entry is on record as “Not Active”.

In the case of `Cc1c(O)c(=O)ccn1C` [DEFERIPRONE], the IC50 entry is “Not Active” and the Ki result was “Not Active”.

For the compound `CCOc1ccc(NC(C)=O)cc1` [PHENACETIN], the IC50 entry is on record as “Not Active” and the Ki result is “Not Active”.

As to `NC1=NC(=O)C(c2ccccc2)O1` (configuration not stated) [PEMOLINE], the IC50 entry was “Not Active” and the Ki entry is recorded as “Not Active”.

Turning to `CCn1cc(C(=O)O)c(=O)c2cc(F)c(N3CCNCC3)cc21` [NORFLOXACIN], the IC50 entry is given as “Not Active” and the Ki result is “Not Active”.
